Experimental data taken from patent US20240293424A1, “CARNITINE-PALMITOYL-TRANSFERASE-1 (CPT-1) INHIBITORS FOR USE IN A METHOD OF PREVENTING OR TREATING SEPSIS IN A MAMMALIAN SUBJECT” (2N PHARMA APS, priority 2021, published 2024).

How the values were obtained:
[1] = tested on: CLP-induced mouse model of sepsis; assay: Cecal ligation and puncture (CLP)-induced mouse model of sepsis; format: in vivo; settings: CLP mice, 5 mg/kg p.o. 1 h after onset of CLP, assessed 24 h after CLP
Source text: This study was be carried out on 10-week old, male C57BL/6 mice (n=5-10 per group) (Charles River Laboratories UK Ltd., Kent, UK) weighing 20-30 g kept under standard laboratory conditions. The animals were allowed to acclimatise to laboratory conditions for at least one week before undergoing experiments. Six mice were housed together in ventilated cages lined with absorbent bedding material. Tubes and chewing blocks were placed in all cages for environmental enrichment. All animals were subjected to 12-h light and dark cycles and the temperature was maintained at 19-23° C. All animals had access to a chow diet and water ad libitum. The cages were cleaned approximately every three days, with water being changed daily. […]
Ten-week-old, male C57BL/6 mice were injected with buprenorphine (0.05 mg/kg, i.p.). […] Temperature was monitored via a rectal probe and kept at 37° C. by a homeothermic mat. […] After 24 h, cardiac function was assessed by echocardiography in vivo. […] The organs (heart, lungs, liver, kidney, spleen) and blood was collected for further analysis to quantify organ injury/dysfunction. […]
Cardiac function in mice was assessed by echocardiography in vivo by means of the Vevo 3100 imaging system (VisualSonics, Toronto, Ontario, Canada). […] During echocardiography, the heart rate was recorded, and a rectal thermometer was recorded to measure core body temperature. […]

HEK293 cells = assay: Fatty acid uptake assay using HEK293 cells; format: cell-based; settings: Homo sapiens, racemic mixture, FIG. 1
Description: HEK293 cells were thawed and centrifuged at 400 g in 1 min, whereafter the supernatant was discarded. The cells were resuspended in DMEM+GlutaMax medium (cat #10566016, Invitrogen) containing 10% fetal calf serum (cat #10270-106, Invitrogen) and 1% penicillin/streptomycin (cat #15140-122, Life Technologies). HEK293 cells were seeded into a T25 flask and incubated at 37 degrees Celsius until 80% confluency. When the HEK293 cells reached confluency, cells were counted and seeded in a 96-well plate and with a volume of 10.000 cells/well in medium (as described above) and incubated overnight. Three wells were without cells serving as controls.
The cells were divided into two groups: 1) Example 1, and 2) Untreated. The fatty acid uptake assay (cat #408-100, BioVision) was carried out according to the protocol from BioVision. The only exception to the protocol was that the measurements in the PerkinElmer Multimode Plate Reader Enspire instrument was running overnight.
Statistics was performed in GraphPad Prism version 8.0. Repeated measure two-way ANOVA were conducted as the groups were tested multiple times followed by a multiple comparison Bonferroni post hoc test.

Question: `CC(=O)N1CCC(c2nc(-c3ccncc3)cs2)N(C(=O)COc2ccccc2)CC1` (single isomer, unassigned) [Example 1, 1-(4-acetyl-7-(4-(pyridin-4-yl)thiazol-2-yl)-1,4-diazepan-1-yl)-2-phenoxyethan-1-one] was tested. Which heart rate ([1]; FIG. 2A) did it give?
Answer: Its heart rate is “maintained”.

Question: And the pulmonary artery flow ([1]; FIG. 2G)?
Answer: Its pulmonary artery flow is “maintained”.

Question: What about the IC50 (HEK293 cells) of the same compound?
Answer: The IC50 was 300 nM.
